Reference: the supplement of paper PMC10307832

Columns and labels:
Assay in all cases: relative viability (nuclei count vs DMSO), 5 days (fraction); higher = more cells survive
COR-L 105 = tested on: COR-L 105
In short: (§1)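 Lung cancer cell lines, seeded in 1536-well plates, were treated the following day by pin tool with a single drug or with five library-drug doses (not always all listed) in √10 steps on top of a fixed anchor-drug dose. Cells were fixed and nuclei stained in one step after 5 days, and nuclei were counted. Relative viability is the nuclei count for treated wells divided by that for vehicle wells, reported as medians of duplicate plates.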

COR-L23 = tested on: COR-L23
In short: as §1

EPLC-272H = tested on: EPLC-272H
In short: as §1

HARA = tested on: HARA
In short: as §1

HCC-15 = tested on: HCC-15
In short: as §1

HCC-366 = tested on: HCC-366
In short: as §1

HCC-44 = tested on: HCC-44
In short: as §1

HCC-78 = tested on: HCC-78
In short: as §1

HCC-827 = tested on: HCC-827
In short: as §1

LCLC-103H = tested on: LCLC-103H
In short: as §1

NCI-H1395 = tested on: NCI-H1395
In short: as §1

NCI-H1437 = tested on: NCI-H1437
In short: as §1

NCI-H1792 = tested on: NCI-H1792
In short: as §1

NCI-H1944 = tested on: NCI-H1944
In short: as §1

NCI-H1975 = tested on: NCI-H1975
In short: as §1

NCI-H2023 = tested on: NCI-H2023
In short: as §1

NCI-H2085 = tested on: NCI-H2085
In short: as §1

NCI-H2405 = tested on: NCI-H2405
In short: as §1

NCI-H358 = tested on: NCI-H358
In short: as §1

NCI-H661 = tested on: NCI-H661
In short: as §1

NCI-H727 = tested on: NCI-H727
In short: as §1

SK-LU-1 = tested on: SK-LU-1
In short: as §1

UMC-11 = tested on: UMC-11
In short: as §1

Cc1cnc(-c2cnc(NCCNc3ccc(C#N)cn3)nc2-c2ccc(Cl)cc2Cl)[nH]1 + CC(=O)Nc1cccc(-n2c(=O)n(C3CC3)c(=O)c3c(Nc4ccc(I)cc4F)n(C)c(=O)c(C)c32)c1 [Trametinib] (partner 0.02 µM)
relative viability (COR-L 105; first compound 0.08 µM): 0.481
relative viability (COR-L 105; first compound 0.253 µM): 0.383
relative viability (COR-L 105; first compound 0.8 µM): 0.324
relative viability (COR-L 105; first compound 2.53 µM): 0.415
relative viability (COR-L23; first compound 0.08 µM): 0.763
relative viability (COR-L23; first compound 0.253 µM): 0.565
relative viability (COR-L23; first compound 0.8 µM): 0.642
relative viability (COR-L23; first compound 2.53 µM): 0.585
relative viability (EPLC-272H; first compound 0.08 µM): 0.26
relative viability (EPLC-272H; first compound 0.253 µM): 0.298
relative viability (EPLC-272H; first compound 0.8 µM): 0.314
relative viability (EPLC-272H; first compound 2.53 µM): 0.296
relative viability (HARA; first compound 0.08 µM): 0.746
relative viability (HARA; first compound 0.253 µM): 0.68
relative viability (HARA; first compound 0.8 µM): 0.623
relative viability (HARA; first compound 2.53 µM): 0.708
relative viability (HCC-15; first compound 0.08 µM): 0.449
relative viability (HCC-15; first compound 0.253 µM): 0.391
relative viability (HCC-15; first compound 0.8 µM): 0.383
relative viability (HCC-15; first compound 2.53 µM): 0.422
relative viability (HCC-366; first compound 0.08 µM): 0.397
relative viability (HCC-366; first compound 0.253 µM): 0.308
relative viability (HCC-366; first compound 0.8 µM): 0.292
relative viability (HCC-366; first compound 2.53 µM): 0.326
relative viability (HCC-44; first compound 0.08 µM): 1.13
relative viability (HCC-44; first compound 0.253 µM): 1.02
relative viability (HCC-44; first compound 0.8 µM): 1.01
relative viability (HCC-44; first compound 2.53 µM): 1.04
relative viability (HCC-78; first compound 0.08 µM): 0.876
relative viability (HCC-78; first compound 0.253 µM): 0.669
relative viability (HCC-78; first compound 0.8 µM): 0.621
relative viability (HCC-78; first compound 2.53 µM): 0.828
relative viability (HCC-827; first compound 0.08 µM): 0.597
relative viability (HCC-827; first compound 0.253 µM): 0.473
relative viability (HCC-827; first compound 0.8 µM): 0.522
relative viability (HCC-827; first compound 2.53 µM): 0.434
relative viability (LCLC-103H; first compound 0.08 µM): 0.686
relative viability (LCLC-103H; first compound 0.253 µM): 0.676
relative viability (LCLC-103H; first compound 0.8 µM): 0.631
relative viability (LCLC-103H; first compound 2.53 µM): 0.671
relative viability (NCI-H1395; first compound 0.08 µM): 1.22
relative viability (NCI-H1395; first compound 0.253 µM): 0.715
relative viability (NCI-H1395; first compound 0.8 µM): 1.03
relative viability (NCI-H1395; first compound 2.53 µM): 0.924
relative viability (NCI-H1437; first compound 0.08 µM): 0.677
relative viability (NCI-H1437; first compound 0.253 µM): 0.492
relative viability (NCI-H1437; first compound 0.8 µM): 0.489
relative viability (NCI-H1437; first compound 2.53 µM): 0.381
relative viability (NCI-H1792; first compound 0.08 µM): 0.525
relative viability (NCI-H1792; first compound 0.253 µM): 0.437
relative viability (NCI-H1792; first compound 0.8 µM): 0.472
relative viability (NCI-H1792; first compound 2.53 µM): 0.349
relative viability (NCI-H1944; first compound 0.08 µM): 0.423
relative viability (NCI-H1944; first compound 0.8 µM): 0.463
relative viability (NCI-H1944; first compound 2.53 µM): 0.371
relative viability (NCI-H1975; first compound 0.08 µM): 0.35
relative viability (NCI-H1975; first compound 0.253 µM): 0.383
relative viability (NCI-H1975; first compound 0.8 µM): 0.353
relative viability (NCI-H1975; first compound 2.53 µM): 0.339
relative viability (NCI-H2023; first compound 0.08 µM): 0.647
relative viability (NCI-H2023; first compound 0.253 µM): 0.537
relative viability (NCI-H2023; first compound 0.8 µM): 0.712
relative viability (NCI-H2023; first compound 2.53 µM): 0.798
relative viability (NCI-H2085; first compound 0.08 µM): 0.596
relative viability (NCI-H2085; first compound 0.253 µM): 0.524
relative viability (NCI-H2085; first compound 0.8 µM): 0.52
relative viability (NCI-H2085; first compound 2.53 µM): 0.604
relative viability (NCI-H2405; first compound 0.08 µM): 0.755
relative viability (NCI-H2405; first compound 0.253 µM): 0.634
relative viability (NCI-H2405; first compound 0.8 µM): 0.611
relative viability (NCI-H2405; first compound 2.53 µM): 0.439
relative viability (NCI-H358; first compound 0.08 µM): 0.147
relative viability (NCI-H358; first compound 0.253 µM): 0.143
relative viability (NCI-H358; first compound 0.8 µM): 0.136
relative viability (NCI-H358; first compound 2.53 µM): 0.13
relative viability (NCI-H661; first compound 0.08 µM): 0.606
relative viability (NCI-H661; first compound 0.253 µM): 0.537
relative viability (NCI-H661; first compound 0.8 µM): 0.68
relative viability (NCI-H661; first compound 2.53 µM): 0.681
relative viability (NCI-H727; first compound 0.08 µM): 0.384
relative viability (NCI-H727; first compound 0.253 µM): 0.375
relative viability (NCI-H727; first compound 0.8 µM): 0.404
relative viability (NCI-H727; first compound 2.53 µM): 0.393
relative viability (SK-LU-1; first compound 0.08 µM): 0.489
relative viability (SK-LU-1; first compound 0.253 µM): 0.61
relative viability (SK-LU-1; first compound 0.8 µM): 0.563
relative viability (SK-LU-1; first compound 2.53 µM): 0.707
relative viability (UMC-11; first compound 0.08 µM): 0.891
relative viability (UMC-11; first compound 0.253 µM): 0.525
relative viability (UMC-11; first compound 0.8 µM): 0.377
relative viability (UMC-11; first compound 2.53 µM): 0.82
